Source: patent US20150192564A1, “PROFILING REACTIVE OXYGEN, NITROGEN AND HALOGEN SPECIES” (ENZO LIFE SCIENCES, INC., C/O ENZO BIOCHEM, INC, priority 2008, published 2015)
Like-named read-outs stand apart in the source and are kept apart here.

Experiments:
[1] = system: HeLa cells; experiment: Kinetic changes in levels of NO and ROS in HeLa cells, wide-field fluorescence microscopy (Example 3); assay type: cell-based, Human; settings: 1 mM L-arginine; for time after treatment at which DAQ signal (NO) was detectable: 1 μM A23187, FIG. 5A; for NO levels (DAQ signal) / ROS production (FIGS. 5B and 5C): 10-60 min treatment; for NO levels (DAQ signal): 1 μM A23187, 0.2 mM antimycin A, 0.1 mM pyocyanin or combination, FIG. 5A; for ROS production (FIGS. 5B and 5C): 0.2 mM antimycin A, 0.1 mM pyocyanin
Experimental: HeLa cells were cultured and plated as described in Example 1. On the day of the experiment, cells were loaded with 50 μM of DAQ, 1 l-1M of DCFDA and HE for 2 h, 37° C. and induced with different ROS and NO inducers (1 μM of A23187, 0.2 mM of antimycin A, 1 mM of L-arginine, 0.1 mM of pyocyanin or combination of L-arginine and pyocyanin) at 37° C. Samples for fluorescent microscopy were prepared after 10, 20, 30, 45 and 60 min of treatment as described in Example 1 and analyzed using an Olympus wide field fluorescent microscope (set of filters as described in the Table 2).

[2] = ROS-generating system: 1O2; cited from earlier work
[3] = ROS-generating system: ONOO−; cited from earlier work
[4] = ROS-generating system: O2•−; cited from earlier work
[5] = ROS-generating system: H2O2; cited from earlier work
[6] = ROS-generating system: ROO−; cited from earlier work
[7] = ROS-generating system: •OCl; cited from earlier work
[8] = ROS-generating system: NO; cited from earlier work
[9] = ROS-generating system: •OH; cited from earlier work
[10] = cited from earlier work
[11] = system: cells; settings: cited from earlier work
[12] = system: HeLa cells; experiment: ROS/RNS production in HeLa cells, triple staining DAQ/DCFDA/HE, wide-field fluorescence microscopy (Example 1); assay type: cell-based, Human; settings: for effect of pretreatment on ROS production induced by pyocyanin: NAG 5 mM, 3C; for effect of pretreatment on green fluorescence upon combination treatment with L-arginine and pyocyanin: HeLa cells pretreated, ebselen 20 μM, 3D
Experimental: Human cervical adenocarcinoma epithelial cell line HeLa was obtained from ATCC (ATTC, Manassas, Va.) and was routinely cultured in Dulbecco's modified eagle medium with low glucose (Sigma-Aldrich, St. Louis, Mo.), supplemented with 10% fetal bovine serum heat inactivated (ATCC) and 100 U/ml penicillin, […] streptomycin (Sigma). Cell cultures were maintained in an incubator at 37° C., with 5% CO2 atmosphere. Three ROS/RNS fluorescent probes were dissolved in anhydrous DMF at the following concentrations: DAQ-20 mM (a 400× stock solution), DCFDA-5 mM (a 5000× stock solutions), DHE-5 mM (a 5000× stock solution). Anhydrous organic solvents should be used with DMF being the first choice, since DMSO is a hydroxyl radical scavenger and its presence may affect ROS/RNS production in cellular systems. Stock solutions of the dyes were aliquoted and stored at −20° C. The day before the experiment, HeLa cells were seeded on multiwell microscope slides (Gel-Line™ Brand, Portsmouth, N.H.) at a density of 2×10^4 cells per well. On the next day, the cells were loaded with 50 μM of DAQ, 1 μM of DCFDA and HE (all dilutions were made in growth medium) for 2 h, 37° C. Then the medium containing dyes was removed, the cells were briefly washed with PBS and induced with L-arginine (1 mM), pyocyanin (100 μM) or their combination for 20 min. […] Pretreated cells were induced as described earlier, overlaid with a cover slip and observed under fluorescence microscope.

[13] = system: HeLa cells; experiment: Multiplexed ROS/RNS detection in HeLa cells by flow cytometry (Example 4); assay type: cell-based, Human; settings: for NO production (fluorescence of oxidized DAQ product in FL4): one hour treatment; for NO production (fluorescence of oxidized DAQ product in FL4) / effect of pretreatment on L-arginine-induced FL4 (NO) signal: FIG. 6 top panel
Experimental: HeLa cells were cultured as described in Example 1. The day before the experiment, the cells were seeded in 6-well tissue culture dishes at a density of 5×10^5 cells per well. On the day of the experiment, the cells were loaded with 50 μM of DAQ, 1 l-1M of DCFDA and HE (solution in culture medium) for 2 h, 37° C. and induced with L-arginine, pyocyanin or their combination, as described in Example 1. To confirm specificity and selectivity of the staining, parallel samples were treated with NAG (general ROC inhibitor) and cPTIO (general NO scavenger and NOS inhibitor). After one hour treatment, the cells were washed with PBS, trypsinized and resuspended in 0.5 ml of PBS. After resuspension, the cells were immediately analyzed by flow cytometry using FAGS Calibur instrument (or any benchtop cytometer equipped with blue and red lasers could be used). Green fluorescence of oxidized DCF was detected in the FL1 channel (excitation with 488 nm blue laser, emission detection with 530/30 BP filter), red fluorescence of DHE was detected in the FL2 channel (excitation with 488 nm blue laser, emission detection with 585/42 BP filter). Fluorescence of oxidized DAQ product was detected in the FL4 channel (excitation with 635 nm red laser, emission detection with 670 LP filter). There was substantial overlap between the oxidized dye spectra; therefore, compensation was required. For compensation purposes, singly stained samples were prepared and compensation was performed using standard protocols.

[14] = system: HeLa cells; experiment: Profiling of ROS induced in HeLa cells by different ROS inducers, DCFDA/HE staining, wide-field fluorescence microscopy (Example 2); assay type: cell-based, Human; settings: for ROS types induced (green DCF and orange HE fluorescence): HeLa cells, inducer 1 h 37° C., 0.5 mM pyrogallol, 0.1 mM pyocyanin, 0.1 mM TBHP, FIG. 4A
Experimental: For purposes of simplifying the assay description, this example was carried out with only two indicator probes, though analogous procedures were employed as in the case where three fluorophores were utilized. Human cervical carcinoma cell line HeLa was cultured as described in Example 1. The day before the experiment, the cells were seeded in multi-well microscope slides (Gel-Line™, Portsmouth, N.H.) at a density of 2×10^4 cells per well. […] After a brief wash with PBS, the cells were stained with 1 l-1M of DGFDA and HE in culture medium for 30 min, 37° C., washed twice with PBS, overlaid with a cover slip and observed under the fluorescent microscope, using green and orange filters described in the Table 2 (FIG. 4A). To perform specific profiling of ROS/RNS, parallel samples of HeLa cells were pretreated for 30 min with 5 mM NAG (general ROS scavenger, FIG. 4B), 5 mM Tiron (specific superoxide scavenger, FIG. 4C), 10 mM pyruvate (specific peroxide scavenger, FIG. 4D). Pretreated cells were induced as described, overlaid with a cover slip and observed under fluorescent microscope using the same set of filters.

[15] = HeLa cells induced 20 min, L-arginine 1 mM, pyocyanin 100 μM or combination, FIG. 3A
[16] = HeLa cells pretreated 1 h, cPTIO 20 μM, FIG. 3B
[17] = FIG. 6 middle and bottom panels
[18] = HeLa cells pretreated with 20 μM ebselen, FIG. 3D

Compound: CNc1ccc2oc(C[C@H]3O[C@@]4(CC[C@H]3C)O[C@H]([C@H](C)C(=O)c3ccc[nH]3)[C@H](C)C[C@H]4C)nc2c1C(=O)O [A23187]
- time after treatment at which DAQ signal (NO) was detectable [1]: 20 min

Compound: Nc1ccc(Oc2ccc3c(-c4ccccc4C(=O)O)c4ccc(=O)cc-4oc3c2)cc1 [APF, 2-[6-(4′-amino)phenoxy-3H-xanthen-3-on-9-yl]benzoic acid]
- Fluorescence increase [2]: 9
- Fluorescence increase [3]: 560
- Fluorescence increase [4]: 6
- Fluorescence increase [5]: 1
- Fluorescence increase [6]: 2
- Fluorescence increase [7]: 3600
- Fluorescence increase [8]: 1
- Fluorescence increase [9]: 1200

Compound: Nc1cc2ccccc2cc1N [DAN, 2,3-diamino naphthalene]
- solubility in aqueous solution [10]: poorly soluble
- cellular toxicity [11]: high cellular toxicity

Compound: O=C(O)c1ccccc1-c1c2ccc(=O)cc-2oc2cc(Oc3ccc(O)cc3)ccc12 [HPF, 2-[6-(4′-hydroxyl)phenoxy-3H-xanthen-3-on-9-yl]benzoic acid]
- Fluorescence increase [2]: 5
- Fluorescence increase [3]: 120
- Fluorescence increase [4]: 8
- Fluorescence increase [5]: 2
- Fluorescence increase [6]: 17
- Fluorescence increase [7]: 6
- Fluorescence increase [8]: 6
- Fluorescence increase [9]: 730

Compound: N=C(N)NCCC[C@H](N)C(=O)O [L-arginine]
- NO production (oxidized DAQ fluorescence, Cy5 filter) [12, 15]: extensive NO production
- time after treatment at which DAQ signal (NO) was detectable [1]: 10 min
- NO levels (DAQ signal) [1]: high levels of NO production
- ROS production (FIGS. 5B and 5C) [1]: No significant ROS production
- NO production (fluorescence of oxidized DAQ product in FL4) [13]: induced NO production

Compound: CC(=O)N[C@@H](CS)C(=O)O [NAG, N-acetyl-L-cysteine]
- effect of pretreatment on ROS production induced by pyocyanin [12, 16]: attenuated ROS induction
- general levels of NO production in pretreated cells ([12]; HeLa cells pretreated with 5 mM NAG, FIG. 3C): increased
- effect of pretreatment on production of ROS types ([14]; HeLa cells pretreated 30 min with 5 mM NAG, then inducers, FIG. 4B): abolished the production of all ROS types
- effect of pretreatment on pyocyanin-induced ROS production (FL1 and FL2) [13, 17]: blocked
- effect of pretreatment on L-arginine-induced FL4 (NO) signal [13]: not

Compound: O=C1OC2(c3cc(Cl)c(O)cc3Oc3cc(O)c(Cl)cc32)c2ccccc21 [OCFH, 2′,7′-dichlorofluorescein]
- Fluorescence increase [2]: 26
- Fluorescence increase [3]: 6600
- Fluorescence increase [4]: 67
- Fluorescence increase [5]: 190
- Fluorescence increase [6]: 710
- Fluorescence increase [7]: 86
- Fluorescence increase [8]: 150
- Fluorescence increase [9]: 7400

Compound: CC(C)(C)OO [TBHP, tert-butyl hydroperoxide]
- ROS types induced (green DCF and orange HE fluorescence) [14]: majority of peroxide/hydroxyl radicals/peroxynitrite

Compound: O=S(=O)(O)c1cc(O)c(O)c(S(=O)(=O)O)c1 [Tiron]
- effect of pretreatment on green fluorescence in pyrogallol-treated cells ([14]; HeLa cells pretreated 30 min, 5 mM Tiron or 10 mM pyruvate, FIG. 4C, 4D): green fluorescence was increased
- effect of pretreatment on orange fluorescence (superoxide) ([14]; HeLa cells pretreated 30 min with 5 mM Tiron, then inducers, FIG. 4C): attenuated only orange fluorescence in all treated cells

Compound: CC1(C)N([O])C(c2ccc(C(=O)[O-])cc2)=[N+]([O-])C1(C)C.[K+] [cPTIO, 2-(4-carboxyphenyl)-4,5-dihydro-4,4,5,5-tetramethyl-1H-imidazolyl-1-oxy-3-oxide, potassium salt]
- effect of pretreatment on ROS production induced by pyocyanin [12, 16]: did not affect ROS production
- effect of pretreatment on NO production upon L-arginine induction [12, 16]: completely abrogated NO production
- effect of pretreatment on green fluorescence upon combination treatment with L-arginine and pyocyanin ([12]; cPTIO 20 μM, FIG. 3B): green fluorescence decreased
- effect of pretreatment on L-arginine-induced FL4 (NO) signal [13]: blocked

Compound: O=c1c2ccccc2[se]n1-c1ccccc1 [ebselen, 2-phenyl-1,2-benzisoselenazol-3[2H]-one]
- effect of pretreatment on levels of NO or superoxide in the combination treated sample [12, 18]: did not restore the original levels of NO or superoxide
- effect of pretreatment on peroxynitrite [12, 18]: inactivated peroxynitrite upon its production
- effect of pretreatment on green fluorescence upon combination treatment with L-arginine and pyocyanin ([12]; cPTIO 20 μM, FIG. 3B): decreased significantly

Compound: Cn1c2cccc(=O)c-2nc2ccccc21 [pyocyanin]
- NO production (oxidized DAQ fluorescence, Cy5 filter) [12, 15]: did not affect NO production
- superoxide production (HE fluorescence, orange filter) [12, 15]: induced superoxide production
- NO levels (DAQ signal) [1]: did not induce any DAQ-detectable signal
- ROS production (FIGS. 5B and 5C) [1]: early induction of ROS
- ROS types induced (green DCF and orange HE fluorescence) [14]: majority of superoxide
- ROS production detected in FL1 and FL2 channels [13, 17]: induced significant ROS production
- NO production (fluorescence of oxidized DAQ product in FL4) [13]: did not induce significant NO production

Compound: Oc1cccc(O)c1O [pyrogallol]
- ROS types induced (green DCF and orange HE fluorescence) [14]: induced mostly superoxide production

Compound: antimycin A
- NO levels (DAQ signal) [1]: did not induce any DAQ-detectable signal
- ROS production (FIGS. 5B and 5C) [1]: early induction of ROS
